The results in this text go back to US8716303B2, “N-(hetero)aryl-pyrrolidine derivatives of pyrazol-4-yl-pyrrolo[2,3-d]pyrimidines and pyrrol-3-yl-pyrrolo[2,3-d]pyrimidines as janus kinase inhibitors” (Incyte Corporation, priority 2009, dated 2014).

Counter-ions that a name gives are not always drawn.

Experiment [1] concerns the target T1, human JAK1 (a.a. 837-1142) (Homo sapiens, UniProt P23458).
T1 construct: human JAK1 (a.a. 837-1142); His tag (N); made in house; host or cells: insect cells (baculovirus)
The experiment is described as follows: In vitro JAK kinase assay (HTRF, phosphorylation of a biotinylated peptide), JAK1. Format: biochemical. Here is the method:
(§1) Compounds herein were tested for inhibitory activity of JAK targets according to the following in vitro assay described in Park et al., Analytical Biochemistry 1999, 269, 94-104. The catalytic domains of human JAK1 (a.a. 837-1142), Jak2 (a.a. 828-1132) and Jak3 (a.a. 781-1124) with an N-terminal His tag were expressed using baculovirus in insect cells and purified. The catalytic activity of JAK1, JAK2 or JAK3 was assayed by measuring the phosphorylation of a biotinylated peptide. The phosphorylated peptide was detected by homogenous time resolved fluorescence (HTRF). IC50s of compounds were measured for each kinase in the 40 microL reactions that contain the enzyme, ATP and 500 nM peptide in 50 mM Tris (pH 7.8) buffer with 100 mM NaCl, 5 mM DTT, and 0.1 mg/mL (0.01%) BSA. The ATP concentration in the reactions was 90 μM for Jak1, 30 μM for Jak2 and 3 μM for Jak3 for Km conditions. For the 1 mM IC50 measurements, ATP concentration in the reactions was 1 mM. Reactions were carried out at RT for 1 h and then stopped with 20 μL 45 mM EDTA, 300 nM SA-APC, 6 nM Eu-Py20 in assay buffer (Perkin Elmer, Boston, Mass.). Binding to the Europium labeled antibody took place for 40 min and HTRF signal was measured on a Fusion plate reader (Perkin Elmer, Boston, Mass.).
(§2) Compounds herein were tested for inhibitory activity of JAK1 and JAK2 targets according to the assay of Example A (experiments run at Km or 1 mM as indicated). The symbol “+” indicates an IC50<50 nM; the symbol “++” indicates an IC50≧50 and ≦100 nM; and the symbol “+++” indicates an IC50>100 and ≦500 nM.

Experiment [2] addresses T2, Jak2 (a.a. 828-1132) (Homo sapiens, UniProt O60674).
T2 construct: Jak2 (a.a. 828-1132); His tag (N); made in house; host or cells: insect cells (baculovirus)
The experiment can be described thus: In vitro JAK kinase assay (HTRF, phosphorylation of a biotinylated peptide), JAK2, reported as JAK2/JAK1 ratio. In kind it is biochemical. The protocol: as §1, §2
(TR-FRET usually uses a lanthanide donor and a delayed reading to cut background.)

[3] abbreviates: Assay Conditions Km (ATP 90 μM for Jak1).
Where [4] appears, read: Assay Conditions Km (ATP 90 μM for Jak1, 30 μM for Jak2).

T2 sequence (O60674 828-1132): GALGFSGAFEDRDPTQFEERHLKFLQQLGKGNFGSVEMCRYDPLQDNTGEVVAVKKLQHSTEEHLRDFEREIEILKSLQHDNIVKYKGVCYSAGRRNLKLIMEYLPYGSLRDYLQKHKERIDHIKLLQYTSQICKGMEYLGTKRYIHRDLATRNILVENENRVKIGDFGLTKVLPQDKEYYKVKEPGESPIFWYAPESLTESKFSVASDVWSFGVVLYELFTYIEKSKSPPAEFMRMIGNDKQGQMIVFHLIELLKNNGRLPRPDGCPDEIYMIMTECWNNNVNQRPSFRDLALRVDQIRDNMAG
T1 sequence (P23458 849-1154): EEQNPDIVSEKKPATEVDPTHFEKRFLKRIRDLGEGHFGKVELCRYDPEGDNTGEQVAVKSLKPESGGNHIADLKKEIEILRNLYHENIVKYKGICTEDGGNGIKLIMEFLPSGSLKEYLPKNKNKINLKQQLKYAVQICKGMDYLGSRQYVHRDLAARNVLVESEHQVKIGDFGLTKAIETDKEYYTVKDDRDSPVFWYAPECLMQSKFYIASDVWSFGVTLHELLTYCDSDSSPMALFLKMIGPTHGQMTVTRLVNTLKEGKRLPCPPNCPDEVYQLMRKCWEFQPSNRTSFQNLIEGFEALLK

What is called IC50 is the concentration that inhibits the measured activity by half. Lower therefore signals higher potency. Take `Cc1cccc(N2CC[C@H]([C@H](CC#N)n3cc(-c4ncnc5[nH]ccc45)cn3)C2)c1C#N` [Example 53, 2-((3S)-3-{(1S)-2-cyano-1-[4-(7H-pyrrolo[2,3-d]pyrimidin-4-yl)-1H-pyrazol-1-yl]ethyl}pyrrolidin-1-yl)-6-methylbenzonitrile trifluoroacetate salt]: in experiment [1] (Assay Conditions 1 mM ATP), the IC50 was under 50 nM. For the same compound, the “JAK2/JAK1 IC50 ratio” value in experiment [2] (Assay Conditions 1 mM ATP) is recorded as over 7.7.

`CS(=O)(=O)c1nc(N2CC[C@H]([C@H](CC#N)n3cc(-c4ncnc5[nH]ccc45)cn3)C2)c(F)cc1F` [Example 130, (3S)-3-{(3S)-1-[3,5-difluoro-6-(methylsulfonyl)pyridin-2-yl]pyrrolidin-3-yl}-3-[4-(7H-pyrrolo[2,3-d]pyrimidin-4-yl)-1H-pyrazol-1-yl]propanenitrile trifluoroacetate]: the IC50 in experiment [1] (Assay Conditions 1 mM ATP) is under 50 nM. The “JAK2/JAK1 IC50 ratio” value in experiment [2] (Assay Conditions 1 mM ATP) was 14.8.

The compound `N#CC[C@@H]([C@H]1CCN(c2nccc(C(F)F)c2C#N)C1)n1cc(-c2ncnc3[nH]ccc23)cn1` [Example 103, 2-((3S)-3-{(1S)-2-cyano-1-[4-(7H-pyrrolo[2,3-d]pyrimidin-4-yl)-1H-pyrazol-1-yl]ethyl}pyrrolidin-1-yl)-4-(difluoromethyl)nicotinonitrile bis(trifluoroacetate)] gave an IC50 in experiment [1] (Assay Conditions 1 mM ATP) of under 50 nM. For the same compound, in experiment [2] (Assay Conditions 1 mM ATP), the “JAK2/JAK1 IC50 ratio” value amounted to 22.8.

For the compound `N#CCC(C1CCN(c2scnc2C#N)C1)n1ccc(-c2ncnc3[nH]ccc23)c1` (racemic) [Example 149-rac, 5-(3-{2-cyano-1-[3-(7H-pyrrolo[2,3-d]pyrimidin-4-yl)-1H-pyrrol-1-yl]ethyl}pyrrolidin-1-yl)-1,3-thiazole-4-carbonitrile], the IC50 in experiment [1] (Assay Conditions 1 mM ATP) is under 50 nM. For the same compound, the “JAK2/JAK1 IC50 ratio” value in experiment [2] (Assay Conditions 1 mM ATP) is 14.5.

In experiment [1] (Assay Conditions 1 mM ATP), `N#Cc1cccnc1N1CC[C@H](C(CF)n2cc(-c3ncnc4[nH]ccc34)cn2)C1` (stereo partly drawn) [Example 118, 2-((3S)-3-{2-fluoro-1-[4-(7H-pyrrolo[2,3-d]pyrimidin-4-yl)-1H-pyrazol-1-yl]ethyl}pyrrolidin-1-yl)nicotinonitrile trifluoroacetate] had an IC50 of under 50 nM. Further, in experiment [2] (Assay Conditions 1 mM ATP), the “JAK2/JAK1 IC50 ratio” value turned out to be 2.8.

With `N#CC[C@@H]([C@H]1CCN(c2ncc(F)cc2C#N)C1)n1cc(-c2ncnc3[nH]ccc23)cn1` [Example 108, 2-((S)-3-((S)-1-(4-(7H-pyrrolo[2,3-d]pyrimidin-4-yl)-1H-pyrazol-1-yl)-2-cyanoethyl)pyrrolidin-1-yl)-5-fluoronicotinonitrile trifluoroacetate salt], the IC50 in experiment [1] (Assay Conditions 1 mM ATP) is under 50 nM. For the same compound, in experiment [2] (Assay Conditions 1 mM ATP), the “JAK2/JAK1 IC50 ratio” value is recorded as 5.7.

On to `CCOc1cccc2nc(N3CCC(C(CC#N)n4cc(-c5ncnc6[nH]ccc56)cn4)C3)oc12` (single isomer, unassigned) [Example 163, 3-(4-(7H-pyrrolo[2,3-d]pyrimidin-4-yl)-1H-pyrazol-1-yl)-3-(1-(7-ethoxybenzo[d]oxazol-2-yl)pyrrolidin-3-yl)propanenitrile], for which the IC50 in experiment [1] (Assay Conditions 1 mM ATP) is under 50 nM. The “JAK2/JAK1 IC50 ratio” value in experiment [2] (Assay Conditions 1 mM ATP) came to 3.3.

Regarding `Cc1cnc2oc(N3CCC(C(CC#N)n4cc(-c5ncnc6[nH]ccc56)cn4)C3)nc2c1` (single isomer, unassigned) [Example 14, 3-[1-(6-methyl[1,3]oxazolo[5,4-b]pyridin-2-yl)pyrrolidin-3-yl]-3-[4-(7H-pyrrolo[2,3-d]pyrimidin-4-yl)-1H-pyrazol-1-yl]propanenitrile], the IC50 in experiment [1] (setting [3]) is under 50 nM. Moreover, in experiment [2] (setting [4]), the “JAK2/JAK1 IC50 ratio” value was determined as 4.

The compound `CC(O)c1cnc(N2CC[C@H]([C@H](CC#N)n3cc(-c4ncnc5[nH]ccc45)cn3)C2)c(C#N)n1` (stereo partly drawn) [Example 146, 3-((3S)-3-{(1S)-2-cyano-1-[4-(7H-pyrrolo[2,3-d]pyrimidin-4-yl)-1H-pyrazol-1-yl]ethyl}pyrrolidin-1-yl)-6-(1-hydroxyethyl)pyrazine-2-carbonitrile trifluoroacetate] had an IC50 in experiment [1] (Assay Conditions 1 mM ATP) of under 50 nM. The “JAK2/JAK1 IC50 ratio” value in experiment [2] (Assay Conditions 1 mM ATP) is over 4.8.

On to `N#CCC(C1CCN(c2ncc3c(c2C#N)S(=O)(=O)CC3)C1)n1ccc(-c2ncnc3[nH]ccc23)c1` (racemic) [Example 171-rac, 6-(3-{2-cyano-1-[3-(7H-pyrrolo[2,3-d]pyrimidin-4-yl)-1H-pyrrol-1-yl]ethyl}pyrrolidin-1-yl)-2,3-dihydrothieno[3,2-c]pyridine-7-carbonitrile 1,1-dioxide], for which the IC50 in experiment [1] (Assay Conditions 1 mM ATP) is under 50 nM. In experiment [2] (Assay Conditions 1 mM ATP), the “JAK2/JAK1 IC50 ratio” value is on record as 21.9.

Regarding `N#CCC(C1CCN(c2ncc3cc[nH]c3c2C#N)C1)n1cc(-c2ncnc3[nH]ccc23)cn1` (single isomer, unassigned) [Example 177, 6-(3-{2-cyano-1-[4-(7H-pyrrolo[2,3-d]pyrimidin-4-yl)-1H-pyrazol-1-yl]ethyl}pyrrolidin-1-yl)-1H-pyrrolo[3,2-c]pyridine-7-carbonitrile], in experiment [1] (Assay Conditions 1 mM ATP), the IC50 was under 50 nM. Moreover, in experiment [2] (Assay Conditions 1 mM ATP), the “JAK2/JAK1 IC50 ratio” value is given as over 5.4.

Turning to `N#Cc1csc(N2CC[C@H](C(CF)n3cc(-c4ncnc5[nH]ccc45)cn3)C2)c1C#N` (stereo partly drawn) [Example 80, 2-((3S)-3-{2-fluoro-1-[4-(7H-pyrrolo[2,3-d]pyrimidin-4-yl)-1H-pyrazol-1-yl]ethyl}pyrrolidin-1-yl)thiophene-3,4-dicarbonitrile], the concentration for half-maximal inhibition (IC50) in experiment [1] (Assay Conditions 1 mM ATP) is under 50 nM. In experiment [2] (Assay Conditions 1 mM ATP), the “JAK2/JAK1 IC50 ratio” value worked out at 12.1.

In experiment [1] (Assay Conditions 1 mM ATP), `CS(=O)(=O)c1ccc(F)c(N2CC[C@H]([C@H](CC#N)n3cc(-c4ncnc5[nH]ccc45)cn3)C2)n1` [Example 133, (3S)-3-{(3S)-1-[3-fluoro-6-(methylsulfonyl)pyridin-2-yl]pyrrolidin-3-yl}-3-[4-(7H-pyrrolo [2,3-d]pyrimidin-4-yl)-1H-pyrazol-1-yl] propanenitrile trifluoroacetate] registered an IC50 of 50 to 100 nM. Moreover, in experiment [2] (Assay Conditions 1 mM ATP), the “JAK2/JAK1 IC50 ratio” value came out at 3.

For the compound `N#CCC(C1CCN(c2nc3cccc(Br)c3o2)C1)n1cc(-c2ncnc3[nH]ccc23)cn1.O=C(O)C(F)(F)F` (single isomer, unassigned) [Example 159, 3-[1-(7-bromo-1,3-benzoxazol-2-yl)pyrrolidin-3-yl]-3-[4-(7H-pyrrolo[2,3-d]pyrimidin-4-yl)-1H-pyrazol-1-yl]propanenitrile trifluoracetate], in experiment [1] (Assay Conditions 1 mM ATP), the IC50 is under 50 nM. Besides, the “JAK2/JAK1 IC50 ratio” value in experiment [2] (Assay Conditions 1 mM ATP) stood at 12.9.

`N#CC[C@@H]([C@H]1CCN(c2ccc(C#N)c(Cl)n2)C1)n1cc(-c2ncnc3[nH]ccc23)cn1` [Example 69, 2-chloro-6-((3S)-3-{(1S)-2-cyano-1-[4-(7H-pyrrolo[2,3-d]pyrimidin-4-yl)-1H-pyrazol-1-yl]ethyl}pyrrolidin-1-yl)nicotinonitrile trifluoroacetate salt]: the half-maximal inhibitory concentration (IC50) in experiment [1] (Assay Conditions 1 mM ATP) is under 50 nM. For the same compound, the “JAK2/JAK1 IC50 ratio” value in experiment [2] (Assay Conditions 1 mM ATP) turned out to be 6.5.

`C[S+]([O-])c1nccc(N2CCC(C(CC#N)n3cc(-c4ncnc5[nH]ccc45)cn3)C2)n1` (single isomer, unassigned) [Example 24, 3-{1-[2-(methylsulfinyl)pyrimidin-4-yl]pyrrolidin-3-yl}-3-[4-(7H-pyrrolo[2,3-d]pyrimidin-4-yl)-1H-pyrazol-1-yl]propanenitrile] showed an IC50 in experiment [1] (Assay Conditions 1 mM ATP) of under 50 nM. Further, the “JAK2/JAK1 IC50 ratio” value in experiment [2] (Assay Conditions 1 mM ATP) is listed as 2.5.

In turn, `N#CCC(C1CCN(c2cccc(Cl)n2)C1)n1cc(-c2ncnc3[nH]ccc23)cn1` (single isomer, unassigned) [2, Step 2b] returned an IC50 in experiment [1] (setting [3]) of under 50 nM. Further, the “JAK2/JAK1 IC50 ratio” value in experiment [2] (setting [4]) worked out at 3.7.

As for `N#CCC(C1CCN(c2scc(C#N)c2C#N)C1)n1ccc(-c2ncnc3[nH]ccc23)c1` (single isomer, unassigned) [81 enantiomer 1], the IC50 in experiment [1] (Assay Conditions 1 mM ATP) is under 50 nM. Moreover, the “JAK2/JAK1 IC50 ratio” value in experiment [2] (Assay Conditions 1 mM ATP) was 40.0.

`N#CCC(C1CCN(c2cccc(Cl)[n+]2[O-])C1)n1cc(-c2ncnc3[nH]ccc23)cn1` (single isomer, unassigned) [Example 45, 3-[1-(6-chloro-1-oxidopyridin-2-yl)pyrrolidin-3-yl]-3-[4-(7H-pyrrolo[2,3-d]pyrimidin-4-yl)-1H-pyrazol-1-yl]propanenitrile]: the half-inhibitory concentration (IC50) in experiment [1] (setting [3]) is under 50 nM. The “JAK2/JAK1 IC50 ratio” value in experiment [2] (setting [4]) came out at 7.4.

In the case of `N#CC[C@@H]([C@H]1CCN(c2nc3c(cc2F)CCS3)C1)n1cc(-c2ncnc3[nH]ccc23)cn1` [Example 87, (3S)-3-[(3S)-1-(5-fluoro-2,3-dihydrothieno[2,3-b]pyridin-6-yl)pyrrolidin-3-yl]-3-[4-(7H-pyrrolo[2,3-d]pyrimidin-4-yl)-1H-pyrazol-1-yl]propanenitrile bis(trifluoroacetate)], in experiment [1] (Assay Conditions 1 mM ATP), the half-maximal inhibitory concentration (IC50) is under 50 nM. For the same compound, in experiment [2] (Assay Conditions 1 mM ATP), the “JAK2/JAK1 IC50 ratio” value stood at 8.1.

`N#CCC(C1CCN(c2cncc(Cl)n2)C1)n1cc(-c2ncnc3[nH]ccc23)cn1` (single isomer, unassigned) [1 (rac)] registered a 50% inhibitory concentration (IC50) in experiment [1] (setting [3]) of under 50 nM. In addition, in experiment [2] (setting [4]), the “JAK2/JAK1 IC50 ratio” value amounted to 3.
